# Results reported in article PMC8617627, “Novel DYRK1A Inhibitor Rescues Learning and Memory Deficits in a Mouse Model of Down Syndrome” (Pharmaceuticals, 2021).
# Read-outs that look alike come from different tables or passages of the source.
# What was measured:
# Assay in all cases: Kinase profile (33P ATP filter binding)
# Type in all cases: biochemical
# HIPK3 = HIPK3 (Homo sapiens, UniProt Q9H422); settings: read-out: Remaining protein kinase activity
# JNK2 = JNK2 (Homo sapiens, UniProt P45984)
# JNK2, sequence (P45984 whole entry, species assumed): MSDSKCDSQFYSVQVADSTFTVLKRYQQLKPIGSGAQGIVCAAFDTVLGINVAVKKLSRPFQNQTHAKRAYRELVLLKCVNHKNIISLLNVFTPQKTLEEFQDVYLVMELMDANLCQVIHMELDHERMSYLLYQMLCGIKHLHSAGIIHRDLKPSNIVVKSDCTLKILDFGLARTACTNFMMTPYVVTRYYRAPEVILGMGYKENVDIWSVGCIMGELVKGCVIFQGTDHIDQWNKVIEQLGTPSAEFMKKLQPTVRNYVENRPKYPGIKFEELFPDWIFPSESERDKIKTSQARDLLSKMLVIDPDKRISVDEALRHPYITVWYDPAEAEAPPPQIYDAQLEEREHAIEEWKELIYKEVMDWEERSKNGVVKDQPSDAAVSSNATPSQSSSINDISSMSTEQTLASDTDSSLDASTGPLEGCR
# VEG-FR = VEG-FR (Homo sapiens, UniProt P17948); settings: read-out: Remaining protein kinase activity
# ASK1 = biological target: T1, ASK1 (Homo sapiens, UniProt Q99683); settings: read-out: Remaining protein kinase activity
# T1 sequence (Q99683 1-1374): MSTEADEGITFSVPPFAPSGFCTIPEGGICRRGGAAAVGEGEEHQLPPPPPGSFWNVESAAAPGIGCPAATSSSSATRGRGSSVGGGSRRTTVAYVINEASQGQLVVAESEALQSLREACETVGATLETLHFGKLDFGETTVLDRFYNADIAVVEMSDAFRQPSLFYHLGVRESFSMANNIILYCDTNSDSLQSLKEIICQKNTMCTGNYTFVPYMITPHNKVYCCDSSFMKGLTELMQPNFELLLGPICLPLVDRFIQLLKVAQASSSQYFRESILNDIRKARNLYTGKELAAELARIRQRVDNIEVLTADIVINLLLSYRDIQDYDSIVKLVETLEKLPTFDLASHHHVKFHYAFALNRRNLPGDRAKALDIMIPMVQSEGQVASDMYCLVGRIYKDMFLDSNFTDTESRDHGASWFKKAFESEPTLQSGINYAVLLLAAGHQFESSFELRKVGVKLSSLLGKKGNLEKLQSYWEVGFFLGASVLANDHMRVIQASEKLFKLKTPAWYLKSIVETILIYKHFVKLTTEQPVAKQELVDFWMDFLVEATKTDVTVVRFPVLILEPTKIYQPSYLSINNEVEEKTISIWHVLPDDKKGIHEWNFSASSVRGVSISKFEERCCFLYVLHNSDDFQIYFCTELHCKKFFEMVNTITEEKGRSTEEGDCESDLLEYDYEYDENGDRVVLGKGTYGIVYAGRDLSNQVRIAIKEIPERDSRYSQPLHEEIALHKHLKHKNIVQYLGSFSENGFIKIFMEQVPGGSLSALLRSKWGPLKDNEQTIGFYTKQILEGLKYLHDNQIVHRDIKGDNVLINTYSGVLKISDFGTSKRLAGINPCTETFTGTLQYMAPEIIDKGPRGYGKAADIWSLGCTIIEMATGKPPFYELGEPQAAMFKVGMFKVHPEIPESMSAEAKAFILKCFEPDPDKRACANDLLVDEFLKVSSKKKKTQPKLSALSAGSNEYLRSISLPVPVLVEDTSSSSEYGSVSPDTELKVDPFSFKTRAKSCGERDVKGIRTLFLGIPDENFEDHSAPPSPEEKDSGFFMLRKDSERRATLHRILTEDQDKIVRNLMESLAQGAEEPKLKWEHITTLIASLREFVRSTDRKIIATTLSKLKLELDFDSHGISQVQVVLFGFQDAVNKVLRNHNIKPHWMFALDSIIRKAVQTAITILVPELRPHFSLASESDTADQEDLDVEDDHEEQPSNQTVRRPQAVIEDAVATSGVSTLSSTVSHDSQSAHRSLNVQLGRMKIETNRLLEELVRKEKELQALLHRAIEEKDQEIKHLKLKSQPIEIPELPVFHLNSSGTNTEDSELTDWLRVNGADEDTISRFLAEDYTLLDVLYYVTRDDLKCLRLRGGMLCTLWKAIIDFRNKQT
# CHK1 = biological target: T2, CHK1 (Homo sapiens, UniProt O14757)
# T2 sequence (O14757 1-476): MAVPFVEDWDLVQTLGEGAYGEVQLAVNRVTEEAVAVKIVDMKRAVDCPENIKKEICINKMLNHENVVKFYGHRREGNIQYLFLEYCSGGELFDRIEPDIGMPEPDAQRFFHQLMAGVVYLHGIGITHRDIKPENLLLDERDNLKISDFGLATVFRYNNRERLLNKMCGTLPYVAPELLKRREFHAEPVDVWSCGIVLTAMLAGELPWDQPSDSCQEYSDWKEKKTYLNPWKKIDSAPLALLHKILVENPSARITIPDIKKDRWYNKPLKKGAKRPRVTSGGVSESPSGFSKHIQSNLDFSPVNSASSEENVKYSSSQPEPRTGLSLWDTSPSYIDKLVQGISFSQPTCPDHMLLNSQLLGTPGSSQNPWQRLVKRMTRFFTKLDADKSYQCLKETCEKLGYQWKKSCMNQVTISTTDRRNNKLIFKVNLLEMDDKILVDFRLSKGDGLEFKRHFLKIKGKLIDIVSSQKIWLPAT
# ERK5 = ERK5 (Homo sapiens, UniProt Q13164); settings: read-out: Remaining protein kinase activity
# ERK5, sequence (Q13164 whole entry, species assumed): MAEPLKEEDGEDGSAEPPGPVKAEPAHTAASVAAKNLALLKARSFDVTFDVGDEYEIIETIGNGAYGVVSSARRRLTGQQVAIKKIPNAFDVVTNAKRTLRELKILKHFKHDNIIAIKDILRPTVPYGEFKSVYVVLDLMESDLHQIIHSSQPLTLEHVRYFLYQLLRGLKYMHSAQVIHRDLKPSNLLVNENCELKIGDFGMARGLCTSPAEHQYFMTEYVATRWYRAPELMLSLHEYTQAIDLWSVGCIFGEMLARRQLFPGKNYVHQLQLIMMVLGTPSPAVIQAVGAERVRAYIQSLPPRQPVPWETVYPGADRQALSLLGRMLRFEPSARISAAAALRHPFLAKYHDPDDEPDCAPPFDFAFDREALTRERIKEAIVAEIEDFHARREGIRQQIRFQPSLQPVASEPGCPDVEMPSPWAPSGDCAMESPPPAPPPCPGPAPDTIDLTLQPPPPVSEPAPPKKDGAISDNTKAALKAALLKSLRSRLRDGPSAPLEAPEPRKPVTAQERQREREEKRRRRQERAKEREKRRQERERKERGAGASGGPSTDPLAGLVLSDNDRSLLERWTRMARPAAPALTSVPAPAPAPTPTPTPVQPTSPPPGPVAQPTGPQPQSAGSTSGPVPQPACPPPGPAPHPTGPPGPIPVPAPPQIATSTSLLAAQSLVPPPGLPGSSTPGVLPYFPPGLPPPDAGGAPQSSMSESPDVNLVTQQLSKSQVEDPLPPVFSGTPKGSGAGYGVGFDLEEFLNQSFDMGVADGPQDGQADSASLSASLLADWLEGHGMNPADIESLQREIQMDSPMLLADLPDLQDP
# MNK1 = MNK1 (Homo sapiens, UniProt Q9BUB5); settings: read-out: Remaining protein kinase activity
# MNK1, sequence (Q9BUB5 whole entry): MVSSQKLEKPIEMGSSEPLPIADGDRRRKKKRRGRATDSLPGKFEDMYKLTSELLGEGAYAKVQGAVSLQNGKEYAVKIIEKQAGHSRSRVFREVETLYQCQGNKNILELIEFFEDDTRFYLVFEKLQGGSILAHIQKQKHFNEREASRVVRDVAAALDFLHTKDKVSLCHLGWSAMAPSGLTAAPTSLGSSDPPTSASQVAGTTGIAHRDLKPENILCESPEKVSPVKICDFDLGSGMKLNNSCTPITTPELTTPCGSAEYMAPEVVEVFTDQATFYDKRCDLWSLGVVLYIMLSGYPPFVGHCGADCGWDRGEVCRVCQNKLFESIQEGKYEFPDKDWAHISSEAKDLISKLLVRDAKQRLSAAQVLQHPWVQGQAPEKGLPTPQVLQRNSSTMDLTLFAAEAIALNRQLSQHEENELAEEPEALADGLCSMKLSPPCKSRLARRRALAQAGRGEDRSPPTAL
# YES1 = YES1 (Homo sapiens, UniProt P07947); settings: read-out: Remaining protein kinase activity
# YES1, sequence (P07947 whole entry): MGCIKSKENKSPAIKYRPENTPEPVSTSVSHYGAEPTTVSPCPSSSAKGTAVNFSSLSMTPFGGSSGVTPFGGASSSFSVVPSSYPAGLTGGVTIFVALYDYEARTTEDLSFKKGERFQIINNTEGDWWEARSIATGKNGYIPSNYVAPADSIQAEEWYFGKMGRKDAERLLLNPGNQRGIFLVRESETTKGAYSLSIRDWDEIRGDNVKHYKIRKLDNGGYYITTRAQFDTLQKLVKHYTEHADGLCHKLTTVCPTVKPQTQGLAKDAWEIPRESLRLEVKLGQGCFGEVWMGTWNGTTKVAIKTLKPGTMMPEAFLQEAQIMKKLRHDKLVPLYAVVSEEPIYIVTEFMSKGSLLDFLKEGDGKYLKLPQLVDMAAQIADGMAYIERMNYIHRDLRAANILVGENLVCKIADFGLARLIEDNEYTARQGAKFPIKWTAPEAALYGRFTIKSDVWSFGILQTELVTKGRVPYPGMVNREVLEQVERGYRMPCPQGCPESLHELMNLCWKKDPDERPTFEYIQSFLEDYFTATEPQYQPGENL
# IRAK1 = IRAK1 (Homo sapiens, UniProt P51617); settings: read-out: Remaining protein kinase activity
# IRAK1, sequence (P51617 whole entry): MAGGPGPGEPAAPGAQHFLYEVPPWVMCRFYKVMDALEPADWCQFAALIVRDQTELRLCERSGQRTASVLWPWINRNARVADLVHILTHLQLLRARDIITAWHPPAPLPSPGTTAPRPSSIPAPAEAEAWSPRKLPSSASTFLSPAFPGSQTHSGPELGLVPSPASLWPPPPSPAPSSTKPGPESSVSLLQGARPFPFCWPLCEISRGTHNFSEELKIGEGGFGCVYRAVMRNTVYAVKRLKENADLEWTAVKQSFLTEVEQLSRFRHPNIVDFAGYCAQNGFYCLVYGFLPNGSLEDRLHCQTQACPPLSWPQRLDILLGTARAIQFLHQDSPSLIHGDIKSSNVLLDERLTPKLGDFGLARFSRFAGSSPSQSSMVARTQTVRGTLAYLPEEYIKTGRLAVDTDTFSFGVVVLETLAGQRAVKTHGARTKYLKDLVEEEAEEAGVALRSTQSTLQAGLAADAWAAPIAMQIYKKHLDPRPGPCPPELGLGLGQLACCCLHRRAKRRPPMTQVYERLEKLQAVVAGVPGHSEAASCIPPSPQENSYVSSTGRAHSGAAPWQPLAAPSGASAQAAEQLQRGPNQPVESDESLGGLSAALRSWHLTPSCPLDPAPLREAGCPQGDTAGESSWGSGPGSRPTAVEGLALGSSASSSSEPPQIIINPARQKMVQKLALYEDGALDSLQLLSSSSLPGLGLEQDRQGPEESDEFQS
# MARK3 = MARK3 (Homo sapiens, UniProt P27448); settings: read-out: Remaining protein kinase activity
# MARK3, sequence (P27448 whole entry): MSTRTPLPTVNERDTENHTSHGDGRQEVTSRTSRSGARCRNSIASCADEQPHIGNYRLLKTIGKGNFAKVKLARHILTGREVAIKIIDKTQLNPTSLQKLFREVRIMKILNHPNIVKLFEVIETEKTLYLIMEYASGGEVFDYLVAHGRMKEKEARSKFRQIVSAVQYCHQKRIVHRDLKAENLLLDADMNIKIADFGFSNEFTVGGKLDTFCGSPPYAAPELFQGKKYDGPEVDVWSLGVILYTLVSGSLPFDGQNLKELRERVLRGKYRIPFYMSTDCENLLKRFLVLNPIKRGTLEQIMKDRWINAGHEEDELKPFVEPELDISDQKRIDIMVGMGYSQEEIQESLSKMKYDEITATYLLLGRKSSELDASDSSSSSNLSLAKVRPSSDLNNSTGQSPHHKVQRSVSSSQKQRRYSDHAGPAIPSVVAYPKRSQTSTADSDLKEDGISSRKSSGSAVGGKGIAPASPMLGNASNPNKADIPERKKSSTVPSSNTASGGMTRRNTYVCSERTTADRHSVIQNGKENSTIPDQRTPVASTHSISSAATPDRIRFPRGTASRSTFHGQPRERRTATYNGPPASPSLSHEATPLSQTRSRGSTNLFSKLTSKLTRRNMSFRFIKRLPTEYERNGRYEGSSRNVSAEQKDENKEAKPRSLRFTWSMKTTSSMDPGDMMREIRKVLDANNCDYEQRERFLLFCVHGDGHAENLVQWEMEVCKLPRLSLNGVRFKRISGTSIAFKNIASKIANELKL
# HIPK3, sequence (Q9H422 whole entry): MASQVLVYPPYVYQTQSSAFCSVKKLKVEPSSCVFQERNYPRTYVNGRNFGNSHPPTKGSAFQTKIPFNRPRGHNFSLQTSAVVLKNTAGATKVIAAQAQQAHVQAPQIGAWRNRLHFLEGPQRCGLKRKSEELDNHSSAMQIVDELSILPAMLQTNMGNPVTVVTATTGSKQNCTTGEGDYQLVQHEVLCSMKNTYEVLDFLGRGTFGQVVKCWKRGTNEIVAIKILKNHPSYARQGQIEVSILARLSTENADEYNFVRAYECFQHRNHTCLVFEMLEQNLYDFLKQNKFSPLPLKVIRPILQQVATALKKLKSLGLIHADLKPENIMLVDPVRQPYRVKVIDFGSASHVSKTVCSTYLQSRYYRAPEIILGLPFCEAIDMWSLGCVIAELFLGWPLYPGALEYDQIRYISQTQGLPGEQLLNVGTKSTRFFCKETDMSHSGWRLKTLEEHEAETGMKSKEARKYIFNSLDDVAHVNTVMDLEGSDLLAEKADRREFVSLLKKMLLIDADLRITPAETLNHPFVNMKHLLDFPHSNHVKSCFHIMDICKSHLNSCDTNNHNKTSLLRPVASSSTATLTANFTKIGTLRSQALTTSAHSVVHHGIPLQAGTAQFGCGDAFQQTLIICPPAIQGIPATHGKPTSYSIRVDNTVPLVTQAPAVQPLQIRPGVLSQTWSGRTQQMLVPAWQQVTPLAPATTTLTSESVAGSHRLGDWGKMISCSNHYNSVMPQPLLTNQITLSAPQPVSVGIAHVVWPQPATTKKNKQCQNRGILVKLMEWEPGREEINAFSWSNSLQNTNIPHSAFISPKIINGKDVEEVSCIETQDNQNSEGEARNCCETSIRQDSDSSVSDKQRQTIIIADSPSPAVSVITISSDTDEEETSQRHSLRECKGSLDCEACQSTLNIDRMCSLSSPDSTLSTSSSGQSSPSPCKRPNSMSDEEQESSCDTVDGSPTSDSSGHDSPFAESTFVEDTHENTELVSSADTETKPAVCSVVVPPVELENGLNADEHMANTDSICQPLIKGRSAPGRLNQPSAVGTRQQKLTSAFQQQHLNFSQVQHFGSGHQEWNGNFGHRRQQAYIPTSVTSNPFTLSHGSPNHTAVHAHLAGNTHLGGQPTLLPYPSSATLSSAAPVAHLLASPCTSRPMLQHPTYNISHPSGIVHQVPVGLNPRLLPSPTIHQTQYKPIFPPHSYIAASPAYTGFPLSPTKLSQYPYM
smiles,measurement,setting,value
"COc1ccc2sc(-c3cncc(NC(C)=O)c3)nc2c1 [PST-001, N-(5-(5-Methoxybenzo[d]thiazol-2-yl)pyridin-3-yl)acetamide]",remaining activity at 1 µM,HIPK3,123%
same,remaining activity at 100 µM,HIPK3,100%
same,Remaining protein kinase activity,JNK2; 1 μM,126%
same,Remaining protein kinase activity,JNK2; 100 μM,129%
same,remaining activity at 1 µM,VEG-FR,111%
same,remaining activity at 100 µM,VEG-FR,41%
same,remaining activity at 1 µM,ASK1,114%
same,remaining activity at 100 µM,ASK1,131%
same,Remaining protein kinase activity,CHK1; 1 μM,104%
same,Remaining protein kinase activity,CHK1; 100 μM,115%
same,remaining activity at 1 µM,ERK5,72%
same,remaining activity at 100 µM,ERK5,51%
same,remaining activity at 1 µM,MNK1,111%
same,remaining activity at 100 µM,MNK1,94%
same,remaining activity at 1 µM,YES1,130%
same,remaining activity at 100 µM,YES1,128%
same,remaining activity at 1 µM,IRAK1,103%
same,remaining activity at 100 µM,IRAK1,93%
same,remaining activity at 1 µM,MARK3,99%
same,remaining activity at 100 µM,MARK3,95%
"COc1ccc2sc(-c3cncc(N)c3)nc2c1 [compound 1, 5-(5-Methoxybenzo[d]thiazol-2-yl)pyridin-3-amine]",remaining activity at 1 µM,"HIPK3; HIPK3, 1 μM",120%
same,remaining activity at 100 µM,"HIPK3; HIPK3, 100 μM",28%
same,Remaining protein kinase activity,JNK2; 1 μM,123%
same,Remaining protein kinase activity,JNK2; 100 μM,104%
same,remaining activity at 1 µM,"VEG-FR; VEG-FR, 1 μM",110%
same,remaining activity at 100 µM,"VEG-FR; VEG-FR, 100 μM",20%
same,remaining activity at 1 µM,"ASK1; ASK1, 1 μM",116%
same,remaining activity at 100 µM,"ASK1; ASK1, 100 μM",150%
same,Remaining protein kinase activity,CHK1; 1 μM,101%
same,Remaining protein kinase activity,CHK1; 100 μM,86%
same,remaining activity at 1 µM,"ERK5; ERK5, 1 μM",66%
same,remaining activity at 100 µM,"ERK5; ERK5, 100 μM",37%
same,remaining activity at 1 µM,"MNK1; MNK1, 1 μM",97%
same,remaining activity at 100 µM,"MNK1; MNK1, 100 μM",20%
same,remaining activity at 1 µM,"YES1; YES1, 1 μM",122%
same,remaining activity at 100 µM,"YES1; YES1, 100 μM",58%
same,remaining activity at 1 µM,"IRAK1; IRAK1, 1 μM",95%
same,remaining activity at 100 µM,"IRAK1; IRAK1, 100 μM",24%
same,remaining activity at 1 µM,"MARK3; MARK3, 1 μM",98%
same,remaining activity at 100 µM,"MARK3; MARK3, 100 μM",34%
